Counter-ions that a name gives are not always drawn. Like-named read-outs stand apart in the source and are kept apart here.
Assays:
[1] = Traction reflex test (myorelaxant action) in mice, therapeutic index versus MES; format: in vivo; conditions: ED50 for traction reflex impairment divided by ED50 for MES; for TI Tract: 30 min; for selectivity ratio at 0.5 h: mouse, in vivo, ip, read-out: TI Tract
Method: (§1) NMR female mice (18-28 g) housed 5 per cage were used for the maximal electroshock (MES) and motor impairment tests. […] All compounds were dissolved in 0.9% saline.
(§2) The MES test was performed together with tests for myorelaxant action (traction reflex) and motor coordination (rotarod). For the traction reflex test mice were placed with their forepaws on a horizontal rod and were required to place all 4 paws on the wire within 10 seconds. To test ataxia (motor coordination) mice were placed on rotarod (5 rpm) and were required to remain on the rod for 1 minute. […] These tests were followed by MES (100 Hz, 0.5 second shock duration, 50 mA shock intensity, 0.9 ms impulse duration, Ugo Basile) applied through corneal electrodes. The presence of tonic convulsions was scored (tonic extension of hind paws with minimum angle to the body of 90°). The aim was to obtain ED50 s for all parameters scored (anticonvulsive activity and motor side effects) with use of the Litchfield Wilcoxon test for quantal dose responses. Division of the ED50 for side effects (ataxia or myorelaxation) by the ED50 for antagonism of electroshock convulsions was used as a therapeutic index (TI). […]

[2] = Maximal electroshock (MES)-induced convulsions in mice; format: in vivo; conditions: Mus musculus, ip, 0.5 h, mice, i.p., read-out: MES ED50
Method: as §1, §2

cortical neurones = assay: Excitotoxicity: glutamate toxicity in cultured cortical neurones (MTT); format: cell-based, rat; conditions: Rattus norvegicus, Cortical neurone
Method: Cortical neurones were obtained from cerebral cortices of 17/18 day old fetal rats (Wistar), in general following the dissociation procedure described by. After short trypsinization and gentle trituration with fire-polished Pasteur pipettes, the cell suspension was washed by centrifugation. Cells were suspended in serum-free Neurobasal medium with B27 supplement (GIBCO) before plating onto poly-L-lysine (Sigma; 0.2 mg/ml, 20 h, 4° C.) and laminin (Sigma; 2 μg/ml, 1 h, 37° C.)-coated 96-well plates (Falcon, Primaria) at a density of 5×10^4 cells/well. Cortical neurones were maintained at 37° C. in humidified 10% CO2 /90% air. […] The medium was changed first after 4 days in vitro and then every 4 days by replacing 2/3 of the medium with astrocyte-conditioned medium. Cortical neurones between day 12 and 14 in culture were used for the experiments.
New-born rat astrocytes were isolated non-enzymatically according to the method of [24]. Briefly, both hemispheres were dissected from 2-day-old rats, passed through an 80 μm gauze, and triturated with Pasteur pipettes. Cell suspension was made in Dulbecco's modified essential medium (DMEM, Gibco) supplemented with 10% fetal calf serum (FCS, Hyclone), 2 mM glutamine (Gibco) and 50 μg/ml gentamycin and transferred into untreated, plastic culture flasks (Corning; […]). Two days after plating the flasks were shaken for 10 minutes on a rotary platform (150 U/min) to remove microglial cells. The cultures were grown to confluency within 14 days, and the culture medium was changed twice weekly. Thereafter, the glial monolayers were extensively washed with serum-free Neurobasal medium (Gibco) to remove the serum. Flasks were then shaken several times to remove oligodendrocytes and neurones. To obtain conditioned medium from primary astrocytes, the cultures were incubated with fresh Neurobasal medium supplemented with B27 andglutamine. Every 2-3 days the conditioned medium was collected and replaced by fresh medium up to 4 times.
Exposure to EAA was performed in serum-free Neurobasal medium containing 100 μM glutamate and the drug to be tested. After 20 h of incubation, the cytotoxic effect was morphologically examined under a phase contrast microscope and biochemically quantified by measuring cell viability with the MTT test (Promega). This calorimetric assay measures the reduction of a tetrazolium component (MTT) into an insoluble formazan product by the mitochondria of living cells. After incubation of the cortical neurones with the dye solution for approximately 1-4 hours, a solubilization solution was added to lyse the cells and solubilize the colored product (incubation overnight at 37° C., 10% CO2, 90% RH). These samples were then read using an Elisa plate reader (Thermomax, MWG Biotech) at a wavelength of 570 nm. The amount of color produced was directly proportional to the number of viable cells.
(§3) IC50 s in patch clamp, excitotoxicity, and binding studies were calculated according to the four parameter logistic equation using the Grafit computer program (Erithacus Software, England). Ki value for binding studies were then determined according to Cheng and Prusoff. Binding values presented are means±SEM of 3-5 determinations (each performed in duplicate). […] Pearson product moment correlation analysis (Sigma Stat, Jandel Scientific) was used to compare in vitro potencies and in vivo anticonvulsant activity.

[3] = Method: All animals were kept with water and food ad libitum under a 12 hour light-dark cycle (light on at 6 a.m.) and at a controlled temperature (20±0.5° C.). All e experiments were performed between 10 a.m. and 5 p.m. Tested agents were injected 30 min. i.p. before the induction of convulsions if not stated otherwise (see below). All compounds were dissolved in 0.9% saline.
NMDA receptor = assay: Patch clamp: NMDA-induced inward currents in cultured hippocampal neurones; format: cell-based, rat
Method: Hippocampi were obtained from rat embryos (E20 to E21) and were then transferred to calcium and magnesium free Hank's buffered salt solution (Gibco) on ice. Cells were mechanically dissociated in 0.05% DNAase/0.3% ovomucoid (Sigma) following an 8 minute pre-incubation with 0.66% trypsin/0.1% DNAase (Sigma). The dissociated cells were then centrifuged at 18 ×g for 10 minutes, re-suspended in minimum essential medium (Gibco) and plated at a density of 150,000 cells cm^-2 onto poly-L-lysine (Sigma)-precoated plastic petri dishes (Falcon). The cells were nourished with NaHCO3 /HEPES-buffered minimum essential medium supplemented with 5% fetal calf serum and 5% horse serum (Gibco) and incubated at 37° C. with 5% CO2 at 95% humidity. […] Thereafter the medium was exchanged partially twice weekly.
Patch clamp recordings were made from these neurones with polished glass electrodes (4-6 m.OMEGA.) in the whole cell mode at room temperature (20-22° C.) with the aid of an EPC-7 amplifier (List). Test substances were applied by switching channels of a custom-made fast superfusion system with a common outflow (10-20 ms exchange times). The contents of the intracellular solution were as follows (mM): CsCl (120), TEACl (20), EGTA (10), MgCl2 (1), CaCl2 -(0.2), glucose (10), ATP(2), cAMP (0.25); pH was adjusted to 7.3 with CsOH or HC1. The extracellular solutions had the following basic composition (mM): NaCl (140), KCl (3), CaCl2 (0.2), glucose (10), HEPES (10), sucrose (4.5), tetrodotoxin (TTX 3*10^-4). Glycine (1 μM) was present in all solutions: a concentration sufficient to cause around 80-85% activation of glycineB receptors. Only results from stable cells were accepted for inclusion in the final analysis, i.e., following recovery of responses to NMDA by at least 75% of their depression by the antagonists tested.
as §3

[4] = Table 8, 95% confidence limits in parentheses
[5] = Table 7, 100 μM glutamate, 20 h, read-out: Glut. Tox. IC50
[6] = Table 9, 100 μM glutamate, read-out: Glut Tox IC50
[7] = Table 7; NMDA 200 μM with glycine 1 μM at -70 mV; read-out: Patch Clamp IC50
[8] = Table 9; NMDA-induced currents; read-out: Patch Clamp IC50

SMILES: CCC[C@@H]1CCC[C@@](C)(N)C1 (relative stereo) [Mrz 2/627]
- TI Tract [1]: 0.8
- ED50 ([2]; Table 7, 30 min before): 43.9 mg/kg
- ED50 [2, 4]: 43.9 mg/kg
- IC50 (cortical neurones; [5]): 26.6 µM
- IC50 (cortical neurones; [6]): 26.6 µM
- Min Lethality ([3]; mouse, in vivo, ip): 60 mg/kg
- IC50 (NMDA receptor; [7]): 210 µM
- IC50 (NMDA receptor; [8]): 150 µM

SMILES: CCC[C@H]1CCC[C@@](C)(N)C1 (relative stereo) [Mrz 2/628]
- TI Tract [1]: 0.8
- ED50 ([2]; Table 7, 30 min before): 73.2 mg/kg
- ED50 [2, 4]: 73.2 mg/kg
- IC50 (cortical neurones; [5]): 27.3 µM
- IC50 (cortical neurones; [6]): 27.3 µM
- Min Lethality ([3]; mouse, in vivo, ip): > 60 mg/kg
- IC50 (NMDA receptor; [7]): 126 µM
- IC50 (NMDA receptor; [8]): 126 µM

SMILES: CC[C@@H]1CCC[C@@](C)(N)C1 (relative stereo) [Mrz 2/629]
- TI Tract [1]: 0.9
- ED50 ([2]; Table 7, 30 min before): 58.5 mg/kg
- ED50 [2, 4]: 58.5 mg/kg
- IC50 (cortical neurones; [5]): > 300 µM
- IC50 (cortical neurones; [6]): > 300 µM
- Min Lethality ([3]; mouse, in vivo, ip): 100 mg/kg
- IC50 (NMDA receptor; [7]): 219 µM
- IC50 (NMDA receptor; [8]): 219 µM

SMILES: CC[C@H]1CC(C)(C)C[C@@](C)(N)C1 (relative stereo) [Mrz 2/632]
- TI Tract [1]: 2.7
- ED50 ([2]; Table 7, 30 min before): 11 mg/kg
- ED50 [2, 4]: 11 mg/kg
- IC50 (cortical neurones; [5]): 10.9 µM
- IC50 (cortical neurones; [6]): 11.2 µM
- Min Lethality ([3]; mouse, in vivo, ip): > 30 mg/kg
- IC50 (NMDA receptor; [7]): 6.4 µM
- IC50 (NMDA receptor; [8]): 6.4 µM

SMILES: CC[C@@H]1CC(C)(C)C[C@@](C)(N)C1 (relative stereo) [Mrz 2/633]
- TI Tract [1]: 2.4
- ED50 ([2]; Table 7, 30 min before): 8.78 mg/kg
- ED50 [2, 4]: 8.78 mg/kg
- IC50 (cortical neurones; [5]): 5.4 µM
- IC50 (cortical neurones; [6]): 6.1 µM
- Min Lethality ([3]; mouse, in vivo, ip): 108 mg/kg
- IC50 (NMDA receptor; [7]): 13.9 µM
- IC50 (NMDA receptor; [8]): 13.9 µM

SMILES: CCC[C@@H]1CC(C)(C)C[C@@](C)(N)C1 (relative stereo) [Mrz 2/635]
- TI Tract [1]: 1.3
- ED50 ([2]; Table 7, 30 min before): 31.6 mg/kg
- ED50 [2, 4]: 31.6 mg/kg
- IC50 (cortical neurones; [5]): 8.2 µM
- IC50 (cortical neurones; [6]): 8.18 µM
- Min Lethality ([3]; mouse, in vivo, ip): > 50 mg/kg
- IC50 (NMDA receptor; [7]): 21 µM
- IC50 (NMDA receptor; [8]): 21 µM

SMILES: C[C@H]1CC(C)(C)C[C@@](C)(N)C1 (relative stereo) [Mrz 2/643]
- selectivity ratio at 0.5 h [1]: 1.3
- ED50 ([2]; Table 7, 30 min before): 18.6 mg/kg
- ED50 [2, 4]: 18.6 mg/kg
- IC50 (cortical neurones; [5]): 12 µM
- IC50 (cortical neurones; [6]): 12 µM
- Min Lethality ([3]; mouse, in vivo, ip): > 50 mg/kg
- IC50 (NMDA receptor; [7]): 13.5 µM
- IC50 (NMDA receptor; [8]): 13.5 µM

SMILES: C[C@@H]1C[C@H](C)C[C@@](C)(N)C1 [MRZ 2/680, 1,trans-3,trans-5-Trimethylcyclohexylamine hydrochloride]
- selectivity ratio at 0.5 h [1]: 0.7
- ED50 [2, 4]: 34.5 mg/kg
- IC50 (cortical neurones; [6]): 35.6 µM
- Min Lethality ([3]; mouse, in vivo, ip): > 50 mg/kg
- IC50 (NMDA receptor; [8]): 43 µM

SMILES: C[C@@H]1C[C@H](C)C[C@](C)(N)C1 [MRZ 2/681, 1,cis-3,cis-5-Trimethylcyclohexylamine hydrochloride hydrate]
- selectivity ratio at 0.5 h [1]: 2.1
- ED50 [2, 4]: 27.9 mg/kg
- IC50 (cortical neurones; [6]): 26.9 µM
- Min Lethality ([3]; mouse, in vivo, ip): > 50 mg/kg
- IC50 (NMDA receptor; [8]): 30 µM

SMILES: CC[C@H]1CC(C)(C)C[C@](C)(N)C1 [MRZ 2/682, (1R, 5S) trans-3-Ethyl-1,5,5-trimethylcyclohexylamine hydrochloride]
- selectivity ratio at 0.5 h [1]: 2.7
- ED50 [2, 4]: 7.6 mg/kg
- IC50 (cortical neurones; [6]): 3.11 µM
- Min Lethality ([3]; mouse, in vivo, ip): > 50 mg/kg
- IC50 (NMDA receptor; [8]): 3.9 µM

SMILES: CC[C@H]1CC(C)(C)C[C@@](C)(N)C1 [MRZ 2/683, (1S, 5S) cis-3-Ethyl-1,5,5-trimethylcyclohexylamine hydrochloride hydrate]
- selectivity ratio at 0.5 h [1]: 2.7
- ED50 [2, 4]: 12.2 mg/kg
- IC50 (cortical neurones; [6]): 5.08 µM
- Min Lethality ([3]; mouse, in vivo, ip): > 50 mg/kg
- IC50 (NMDA receptor; [8]): 4.3 µM

SMILES: CC12CC3CC(C)(C1)CC(N)(C3)C2 [Memantine, reference compound]
- selectivity ratio at 0.5 h [1]: 2.9
- ED50 ([2]; Table 7, 30 min before): 6.9 mg/kg
- ED50 [2, 4]: 6.9 mg/kg
- IC50 (cortical neurones; 20 h, read-out: Glut. Tox. IC50): 1.3 µM
- IC50 (cortical neurones; read-out: Glut Tox IC50): 1.4 µM
- Min Lethality ([3]; i.p., minimal lethal dose): > 108 mg/kg
- IC50 (NMDA receptor; read-out: Patch Clamp IC50; Table 7; NMDA 200 μM with glycine 1 μM at -70 mV): 2.3 µM
- IC50 (NMDA receptor; read-out: Patch Clamp IC50; Table 9; NMDA-induced currents): 2.87 µM
